Laboratory results published in patent publication US20240108732A1, “Formulated and/or Co-Formulated Lipid Nanocarriers Compositions Containing Toll-Like Receptor ("TLR") Agonist Prodrugs Useful In The Treatment of Cancer and Methods Thereof” (Nammi Therapeutics, Inc., priority 2022, published 2024).

Assays:
[1] = biological target: T1, human TLR8 (Homo sapiens, UniProt Q9NR97); assay: Example 15: HEK-Blue hTLR8 cells / QUANTI-Blue SEAP assay; type: cell-based; settings: from RAW-Blue and HEK-Blue hTLR8 results
T1 construct: host or cells: HEK-Blue hTLR8 cells
T1 sequence (Q9NR97 27-1041): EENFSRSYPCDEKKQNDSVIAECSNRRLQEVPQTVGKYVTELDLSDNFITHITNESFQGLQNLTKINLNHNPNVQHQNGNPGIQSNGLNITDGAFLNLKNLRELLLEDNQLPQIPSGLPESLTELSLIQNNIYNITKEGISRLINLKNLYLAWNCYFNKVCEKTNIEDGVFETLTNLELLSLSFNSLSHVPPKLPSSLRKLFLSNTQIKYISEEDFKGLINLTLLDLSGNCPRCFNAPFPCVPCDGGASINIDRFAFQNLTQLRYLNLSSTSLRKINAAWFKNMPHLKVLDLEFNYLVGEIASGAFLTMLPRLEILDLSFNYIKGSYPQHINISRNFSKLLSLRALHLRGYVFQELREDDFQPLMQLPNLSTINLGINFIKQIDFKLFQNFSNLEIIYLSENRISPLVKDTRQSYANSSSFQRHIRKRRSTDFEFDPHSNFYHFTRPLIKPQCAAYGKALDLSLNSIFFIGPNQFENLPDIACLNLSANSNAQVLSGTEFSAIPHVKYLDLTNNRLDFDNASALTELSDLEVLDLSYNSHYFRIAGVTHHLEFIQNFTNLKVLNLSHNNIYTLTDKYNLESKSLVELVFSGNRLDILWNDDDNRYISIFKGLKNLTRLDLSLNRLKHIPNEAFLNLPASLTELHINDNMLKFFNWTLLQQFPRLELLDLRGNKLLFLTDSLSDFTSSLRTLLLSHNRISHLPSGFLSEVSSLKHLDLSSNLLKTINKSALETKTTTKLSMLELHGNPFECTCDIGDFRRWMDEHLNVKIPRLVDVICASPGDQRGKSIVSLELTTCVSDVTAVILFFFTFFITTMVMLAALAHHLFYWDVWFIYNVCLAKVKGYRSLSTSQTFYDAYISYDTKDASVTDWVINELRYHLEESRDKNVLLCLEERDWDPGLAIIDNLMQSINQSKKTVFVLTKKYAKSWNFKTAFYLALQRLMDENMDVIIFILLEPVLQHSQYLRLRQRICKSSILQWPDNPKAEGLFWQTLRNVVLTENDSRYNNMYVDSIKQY
Text: In another experiment, in vitro biological activity of SLNP-TR12 specificity to TLR7 was confirmed using the following experiment. […] It is noted that despite Raw-Blue cells that express a variety of TLRs including TLR7 and TLR8, the HEK-Blue™ hTLR8 cells dominantly express the human TLR8 gene and an NF-κB/AP-1-inducible SEAP (secreted embryonic alkaline phosphatase) reporter gene. Thus, SEAP levels produced upon TLR8 stimulation can be readily determined by performing the assay in HEK-Blue™ Detection.
Concurrently, HEK-Blue TLR8 were incubated with SLNP-TR5 or SLNP-TR12 at different concentrations. After 24 h incubation with the compounds, TLR stimulation was assessed by measuring the levels of SEAP optimal density (OD) using QUANTI-Blue™ assay. ODs were normalized to the control (untreated) group (See, FIG. 23(B)).

[2] = biological target: T2, TLR7 (Mus musculus, UniProt P58681); assay: Example 13: RAW-Blue cells / QUANTI-Blue SEAP reporter assay; type: cell-based; settings: 24 h incubation
T2 construct: Raw-Blue cells that express a variety of TLRs including TLR7 and TLR8; host or cells: RAW-Blue cells
T2 sequence (P58681 27-1050): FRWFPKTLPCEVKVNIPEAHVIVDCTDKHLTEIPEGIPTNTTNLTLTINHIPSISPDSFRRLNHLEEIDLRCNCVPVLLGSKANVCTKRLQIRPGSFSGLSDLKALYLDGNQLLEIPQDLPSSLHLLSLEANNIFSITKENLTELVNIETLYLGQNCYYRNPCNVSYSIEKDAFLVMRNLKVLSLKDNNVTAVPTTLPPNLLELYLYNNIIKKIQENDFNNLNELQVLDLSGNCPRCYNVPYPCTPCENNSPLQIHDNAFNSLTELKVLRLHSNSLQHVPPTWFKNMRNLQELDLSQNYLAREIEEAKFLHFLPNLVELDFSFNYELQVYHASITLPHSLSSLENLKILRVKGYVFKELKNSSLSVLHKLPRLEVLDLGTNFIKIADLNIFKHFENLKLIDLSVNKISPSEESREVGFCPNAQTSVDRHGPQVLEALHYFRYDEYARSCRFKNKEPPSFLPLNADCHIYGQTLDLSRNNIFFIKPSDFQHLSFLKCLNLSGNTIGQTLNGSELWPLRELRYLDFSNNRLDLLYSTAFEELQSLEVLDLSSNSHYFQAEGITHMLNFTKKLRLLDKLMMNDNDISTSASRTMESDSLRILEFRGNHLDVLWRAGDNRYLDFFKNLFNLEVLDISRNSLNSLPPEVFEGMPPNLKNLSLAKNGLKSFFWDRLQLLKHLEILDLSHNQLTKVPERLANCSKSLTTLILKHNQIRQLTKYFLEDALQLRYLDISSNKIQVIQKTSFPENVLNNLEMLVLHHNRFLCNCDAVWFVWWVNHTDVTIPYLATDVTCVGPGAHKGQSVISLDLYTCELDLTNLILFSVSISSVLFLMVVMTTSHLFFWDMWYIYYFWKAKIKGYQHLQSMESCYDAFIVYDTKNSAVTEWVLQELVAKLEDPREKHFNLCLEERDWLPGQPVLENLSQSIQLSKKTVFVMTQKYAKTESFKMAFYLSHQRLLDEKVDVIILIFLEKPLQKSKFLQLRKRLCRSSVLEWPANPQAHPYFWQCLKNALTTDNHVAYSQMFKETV
Protocol: By way of background, RAW-Blue™ Cells and QUANTI-Blue™ (InvivoGen, San Diego, CA) assay were utilized. Raw Blue™ express […] Toll-like receptors (“TLRs”) and an NF-κB/AP-1-inducible SEAP (secreted embryonic alkaline phosphatase) reporter gene. Stimulation of these cells with TR12 leads to NF-κB activation through TLR7 which can be measured by detection of SEAP levels. Briefly, RAW-Blue™ Cells were incubated with TR12-SA (TR12-Stearic Acid) and SLNP-TR12 (TR12 Stearic Acid in Solid Lipid Nanoparticle from) at different concentration. After 24 h incubation with the compounds, TLR stimulation was assessed by measuring the levels of SEAP optimal density (OD) using QUANTI-Blue™ assay. ODs were normalized to the control (untreated) group. […] (See, FIG. 21).

Compound	specificity TLR7 versus TLR8 [1]	TLR stimulation (SEAP OD normalized to untreated control) [2]
CCCCCCCCCCCCCCCCCC(=O)NCCCCOn1c(CCCC)nc2c(N)nc3ccccc3c21 [TR5, Telratolimod]	stimulates both TLR7 and TLR8	
CCCCCCCCCCCCCCCCCC(=O)OCOC(=O)N1CCN(c2ccc(Cn3c(=O)[nH]c4c(N)nc(NCCCC)nc43)cn2)CC1 [TR12 prodrug]		stimulation of TLR-7
